In patent publication US20060003992A1, “New drug combinations” (Pharmacia & Upjohn Company, LLC, priority 2001, published 2006) one finds mean average avoidance data, which are given here for 2 molecules.

In the test the test system is mice. Nature of the test: conditioned avoidance response assay. The format is in vivo. The note with it: tested 20 min after. On the procedure: Eleven mice per sample group are tested using a conditioned avoidance response assay, which can be used to predict the likelihood of possible detrimental side effects associated with the administration of a neuroleptic agent. The regimen included a pre-treatment with either saline or reboxetine (at a dosage of 6 mg/kg, i.p.) followed thirty minutes afterwards by treatment with either saline or raclopride (0.05 mg/kg or 0.10 mg/kg, s.c.). The mice are tested in the assay twenty minutes after administration of the saline or raclopride. The mean average avoidance as measured by the assay for the six different sample groups are as follows: […]

With `CCN1CCC[C@H]1CNC(=O)c1c(O)c(Cl)cc(Cl)c1OC` [raclopride], the mean average avoidance (saline pre-treatment, 30 min later raclopride 0.05 mg/kg s.c.) came to 90 and the mean average avoidance (saline pre-treatment, 30 min later raclopride 0.10 mg/kg s.c.) is given as 70.
`CCOc1ccccc1OC(c1ccccc1)C1CNCCO1` (stereo not drawn) [reboxetine]: the mean average avoidance (reboxetine 6 mg/kg i.p. pre-treatment, 30 min later saline) is listed as 100.
